Measurements from US7875604B2, “Compounds that inhibit HIV particle formation” (University of Virginia Patent Foundation, priority 2004, dated 2011).
Like-named read-outs stand apart in the source and are kept apart here.

Assays:
Assay type in all cases: cell-based
fresh human PBMCs = assay: MTS staining for PBMC viability to measure cytotoxicity
Procedure: For the standard PBMC assay, PHA-P stimulated cells from at least two normal donors were pooled (mixed together), diluted in fresh medium to a final concentration of 1×10^6 cells/mL, and plated in the interior wells of a 96 well round bottom microplate at 50 μL/well (5×10^4 cells/well) in a standard format developed by the Infectious Disease Research department of Southern Research Institute. Pooling (mixing) of mononuclear cells from more than one donor is used to minimize the variability observed between individual donors, which results from quantitative and qualitative differences in HIV infection and overall response to the PHA and IL-2 of primary lymphocyte populations. Each plate contains virus/cell control wells (cells plus virus), experimental wells (drug plus cells plus virus) and compound control wells (drug plus media without cells, necessary for MTS monitoring of cytotoxicity). Since HIV-1 is not cytopathic to PBMCs, this allows the use of the same assay plate for both antiviral activity and cytotoxicity measurements. Test drug dilutions were prepared at a 2× concentration in microtiter tubes and 100 μL of each concentration was placed in appropriate wells using the standard format. 50 μL of a predetermined dilution of virus stock was placed in each test well (final MOI≅0.1). The PBMC cultures were maintained for seven days following infection at 37° C., 5% CO2. After this period, cell-free supernatant samples were collected for analysis of reverse transcriptase activity as a measure of virus release. Following removal of supernatant samples, compound cytotoxicity was measured by addition of MTS to the plates for determination of cell viability. Wells were also examined microscopically and any abnormalities were noted.
At assay termination, assay plates were stained with the soluble tetrazolium-based dye MTS (CellTiter 96 Reagent, Promega) to determine cell viability and quantify compound toxicity. The mitochondrial enzymes of metabolically active cells metabolize MTS to yield a soluble formazan product. This allows the rapid quantitative analysis of cell viability and compound cytotoxicity. […] At termination of the assay, 20 μL of MTS reagent was added per well. The microtiter plates were then incubated 4-6 hrs at 37° C. The incubation intervals were chosen based on empirically determined times for optimal dye reduction. Adhesive plate sealers were used in place of the lids, the sealed plate was inverted several times to mix the soluble formazan product and the plate was read spectrophotometrically at 490/650 nm with a Molecular Devices Vmax or SpectraMaxPlus plate reader.
(§1) Compounds were tested in the PBMC assay using the maximum high-test concentration possible based on the supplied stocks which are listed in table 3. Compounds were prepared at a 2× high-test concentration by combining drug stock with tissue culture media at a ratio of 5 μL of drug to 995 μL of media. This 2× high-test sample was subsequently serially diluted in tissue culture media using 1/2 log dilutions. This series of 2× concentrated drug was subsequently diluted 1:1 by combining with an equal volume of cells in media in the 96-well plates used for the assay.

HeLa = assay: HIV-1 Rev assay toxicity/non-specificity readout (Firefly Luciferase); conditions: 50% inhibition of Firefly Luciferase (toxicity/non-specificity), 24 hours; read-out: TC50 (the source's name)
Procedure: The eight compounds listed in Table 1 were also tested in an assay that measured HIV-1 Rev function. The HIV-1 Rev assay is based upon the use of a reporter for detecting whether drug candidates are capable of inhibiting the function of the viral Rev protein. The reporter used for these assays is the Renilla Luciferase protein, which is an enzyme that produces detectable light when mixed with certain chemicals. For this assay, a cell line has been developed in which the production of the reporter by the cells requires the function of HIV-1 Rev. Therefore, if a drug candidate inhibits the function of Rev, it decreases the amount of the reporter produced by the cells. By using Renilla Luciferase as the reporter, the inhibition of Rev is easily detected as a decrease in the amount of light produced by the cells when mixed with the appropriate chemicals. Furthermore, the cell line for this assay has been engineered to use a second similar reporter (Firefly Luciferase) that detects whether drug candidates are toxic.
as §1, with “Rev” for “PBMC”, “as shown” for “which are listed”, “Table” for “table”, “assay. Representative data for two of the compounds is also depicted in FIG. 5.” for “assay.”
Leptomycin B is a control compound known to inhibit Rev function.

U1 cells = assay: MTS staining for cell viability in U1 cell assay; conditions: Table 6, MTS, read-out: TC50 (the source's name)
How it was run: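 U1 cells plated with 5 ng/mL TNF-α (final) and compound in 1/2-log dilutions from the highest concentration the stock allowed, then cultured 3 days. Cytotoxicity read by MTS tetrazolium dye reduction at assay end. Assay dropped if Trypan Blue viability was below 70%.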

Compound: 2-chloro-N-(4-methylphenyl)-4-(trifluoromethyl)-1,3-thazole-5-carboxamide [Compound 91161]
- CC50 (fresh human PBMCs; PBMC plates with HIV-1 BR/93/021, MTS, read-out: TC50 (the source's name)): 23.3 µM
- CC50 (fresh human PBMCs; PBMC plates with HIV-1 NL4-3, MTS, read-out: TC50 (the source's name)): 13.5 µM
- CC50 (HeLa): > 39.5 µM
- CC50 (U1 cells): 22.3 µM

Compound: Fc1ccc(Nc2ncnc3ccccc23)cc1Cl [Compound 109020, N-(3-chloro-4-fluorophenyl)-N-(4-quinazolinyl)amine]
- CC50 (fresh human PBMCs; human, 7 days): > 40.8 µM

Compound: CCc1c(C)nc2sc(C(N)=O)c(N)c2c1C [Compound 103833, 3-amino-5-ethyl-4,6-dimethylthieno[2,3-b]pyridine-2-carboxamide]
- CC50 (fresh human PBMCs; human, 7 days): > 37.6 µM
